Assay results published in ChEMBL document CHEMBL1201862, “PubChem BioAssay data set” (2004).
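Where inhibition never reached the appropriate level, the endpoint shown equals the highest concentration tested. Otherwise, values were interpolated linearly from a five-concentration, 48-hour dose response in 96-well plates. GI50 = concentration required for 50% inhibition of growth.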 Calls of active or inactive are those of the source. Cut-off read from the data, not from the text of the source: active = GI50 up to about 1.1 µM and inactive = higher.

Assays:
Test in all cases: growth of human tumour cells (NCI), 48 h
OVCAR-8 = test system: OVCAR-8
TK-10 = test system: TK-10
A549 = test system: A549
MOLT-4 = test system: MOLT-4
U-251 = test system: U-251
HCT-116 = test system: HCT-116
SNB-75 = test system: SNB-75
HL-60 = test system: HL-60
UACC-257 = test system: UACC-257
A498 = test system: A498
Hs-578T = test system: Hs-578T
HT-29 = test system: HT-29
K562 = test system: K562
HCT-15 = test system: HCT-15
BT-549 = test system: BT-549
PC-3 = test system: PC-3
SF-295 = test system: SF-295
NCI-H23 = test system: NCI-H23
NCI/ADR-RES = test system: NCI/ADR-RES
MDA-N = test system: MDA-N
SK-MEL-5 = test system: SK-MEL-5
KM12 = test system: KM12
MCF7 = test system: MCF7
MDA-MB-435 = test system: MDA-MB-435
EKVX = test system: EKVX
HOP-92 = test system: HOP-92
ACHN = test system: ACHN
LOX IMVI = test system: LOX IMVI
UO-31 = test system: UO-31
CAKI-1 = test system: CAKI-1
DU-145 = test system: DU-145
IGROV-1 = test system: IGROV-1
SF-268 = test system: SF-268
SK-MEL-28 = test system: SK-MEL-28
SK-MEL-2 = test system: SK-MEL-2
CCRF-CEM = test system: CCRF-CEM
OVCAR-4 = test system: OVCAR-4
RXF 393 = test system: RXF 393
M14 = test system: M14
RPMI-8226 = test system: RPMI-8226
SN12C = test system: SN12C
Malme-3M = test system: Malme-3M
HOP-62 = test system: HOP-62
SR = test system: SR
COLO 205 = test system: COLO 205
NCI-H522 = test system: NCI-H522
SNB-19 = test system: SNB-19
SF-539 = test system: SF-539
T47D = test system: T47D
UACC-62 = test system: UACC-62
OVCAR-3 = test system: OVCAR-3
786-0 = test system: 786-0
NCI-H226 = test system: NCI-H226
OVCAR-5 = test system: OVCAR-5
SK-OV-3 = test system: SK-OV-3
SW-620 = test system: SW-620
NCI-H460 = test system: NCI-H460
HCC 2998 = test system: HCC 2998
MDA-MB-231 = test system: MDA-MB-231

O=C1Nc2ccccc2/C1=C1/Nc2ccccc2/C1=N/OCCO
GI50 (OVCAR-8): > 100 µM (inactive)
GI50 (TK-10): 9.73 µM (inactive)
GI50 (A549): 1.52 µM (inactive)
GI50 (MOLT-4): 0.8 µM (active)
GI50 (U-251): > 100 µM (inactive)
GI50 (HCT-116): 0.481 µM (active)
GI50 (SNB-75): > 100 µM (inactive)
GI50 (HL-60): 3.87 µM (inactive)
GI50 (UACC-257): > 100 µM (inactive)
GI50 (A498): 0.213 µM (active)
GI50 (Hs-578T): 6.14 µM (inactive)
GI50 (HT-29): 2.44 µM (inactive)
GI50 (K562): > 100 µM (inactive)
GI50 (HCT-15): 0.433 µM
GI50 (BT-549): 50.9 µM (inactive)
GI50 (PC-3): 15.1 µM (inactive)
GI50 (SF-295): 17.3 µM (inactive)
GI50 (NCI-H23): 0.656 µM (active)
GI50 (NCI/ADR-RES): > 100 µM (inactive)
GI50 (MDA-N): 23 µM (inactive)
GI50 (SK-MEL-5): 0.771 µM (active)
GI50 (KM12): 0.149 µM (active)
GI50 (MCF7): 1.86 µM (inactive)
GI50 (MDA-MB-435): 2.47 µM (inactive)
GI50 (EKVX): 0.662 µM (active)
GI50 (HOP-92): > 100 µM (inactive)
GI50 (ACHN): 0.352 µM (active)
GI50 (LOX IMVI): 0.69 µM (active)
GI50 (UO-31): 0.363 µM (active)
GI50 (CAKI-1): 0.175 µM (active)
GI50 (DU-145): 0.713 µM (active)
GI50 (IGROV-1): 0.274 µM (active)
GI50 (SF-268): > 100 µM (inactive)
GI50 (SK-MEL-28): > 100 µM (inactive)
GI50 (SK-MEL-2): 0.457 µM (active)
GI50 (CCRF-CEM): > 100 µM (inactive)
GI50 (OVCAR-4): > 100 µM (inactive)
GI50 (RXF 393): 5.85 µM (inactive)
GI50 (M14): 2.39 µM (inactive)
GI50 (RPMI-8226): > 100 µM (inactive)
GI50 (SN12C): 29 µM (inactive)
GI50 (Malme-3M): 5.53 µM (inactive)
GI50 (HOP-62): > 100 µM (inactive)
GI50 (SR): 0.546 µM (active)
GI50 (COLO 205): 3.99 µM (inactive)
GI50 (NCI-H522): > 100 µM (inactive)
GI50 (SNB-19): > 100 µM (inactive)
GI50 (SF-539): > 100 µM (inactive)
GI50 (T47D): 5.62 µM (inactive)
GI50 (UACC-62): 10.5 µM (inactive)
GI50 (OVCAR-3): 1.51 µM (inactive)
GI50 (786-0): 13 µM (inactive)
GI50 (NCI-H226): > 100 µM (inactive)
GI50 (OVCAR-5): > 100 µM (inactive)
GI50 (SK-OV-3): 0.299 µM (active)
GI50 (SW-620): 14 µM (inactive)
GI50 (NCI-H460): 0.824 µM (active)
GI50 (HCC 2998): 24.8 µM (inactive)

O=C(CC(=O)n1nc(-c2ccccc2)c(/N=N/c2ccc(Cl)cc2)c1-c1ccccc1)Nc1cccc(Cl)c1
GI50 (OVCAR-8): 81.1 µM (inactive)
GI50 (TK-10): > 100 µM (inactive)
GI50 (A549): > 100 µM (inactive)
GI50 (MOLT-4): 35.9 µM (inactive)
GI50 (U-251): 40.9 µM (inactive)
GI50 (HCT-116): 61.7 µM (inactive)
GI50 (SNB-75): 43.3 µM (inactive)
GI50 (HL-60): 28.5 µM (inactive)
GI50 (UACC-257): > 100 µM (inactive)
GI50 (A498): 34.3 µM (inactive)
GI50 (Hs-578T): > 100 µM (inactive)
GI50 (HT-29): 75.7 µM (inactive)
GI50 (K562): 46.7 µM (inactive)
GI50 (HCT-15): 54.6 µM
GI50 (BT-549): > 100 µM (inactive)
GI50 (PC-3): 75 µM (inactive)
GI50 (NCI-H23): > 100 µM (inactive)
GI50 (MDA-N): > 100 µM (inactive)
GI50 (SK-MEL-5): > 100 µM (inactive)
GI50 (KM12): > 100 µM (inactive)
GI50 (MCF7): > 10 µM (inactive)
GI50 (EKVX): 25.3 µM (inactive)
GI50 (HOP-92): > 100 µM (inactive)
GI50 (ACHN): 63.8 µM (inactive)
GI50 (UO-31): 30.5 µM (inactive)
GI50 (IGROV-1): 5.25 µM (inactive)
GI50 (SK-MEL-28): > 100 µM (inactive)
GI50 (SK-MEL-2): > 100 µM (inactive)
GI50 (CCRF-CEM): 38.9 µM (inactive)
GI50 (RXF 393): > 100 µM (inactive)
GI50 (M14): 70.1 µM (inactive)
GI50 (RPMI-8226): 65.6 µM (inactive)
GI50 (SN12C): 60.5 µM (inactive)
GI50 (Malme-3M): 42.9 µM (inactive)
GI50 (HOP-62): 38 µM (inactive)
GI50 (SR): 37.8 µM (inactive)
GI50 (COLO 205): > 100 µM (inactive)
GI50 (SNB-19): 41.1 µM (inactive)
GI50 (T47D): > 100 µM (inactive)
GI50 (UACC-62): 73.8 µM (inactive)
GI50 (786-0): 59.6 µM (inactive)
GI50 (NCI-H226): 28.3 µM (inactive)
GI50 (OVCAR-5): 96.4 µM (inactive)
GI50 (SW-620): > 100 µM (inactive)
GI50 (MDA-MB-231): 54.7 µM (inactive)
GI50 (NCI-H460): 34.1 µM (inactive)
GI50 (HCC 2998): > 100 µM (inactive)

O=c1cc(N2CCOCC2)[nH]c(=O)n1-c1cccc(C(F)(F)F)c1
GI50 (OVCAR-8): > 100 µM (inactive)
GI50 (TK-10): > 100 µM (inactive)
GI50 (A549): > 100 µM (inactive)
GI50 (MOLT-4): > 100 µM (inactive)
GI50 (U-251): 64.7 µM (inactive)
GI50 (HCT-116): > 100 µM (inactive)
GI50 (SNB-75): > 100 µM (inactive)
GI50 (HL-60): > 100 µM (inactive)
GI50 (UACC-257): > 100 µM (inactive)
GI50 (A498): > 100 µM (inactive)
GI50 (Hs-578T): > 100 µM (inactive)
GI50 (HT-29): > 100 µM (inactive)
GI50 (K562): > 100 µM (inactive)
GI50 (HCT-15): > 100 µM
GI50 (BT-549): > 100 µM (inactive)
GI50 (SF-295): > 100 µM (inactive)
GI50 (NCI-H23): > 100 µM (inactive)
GI50 (NCI/ADR-RES): > 100 µM (inactive)
GI50 (MDA-N): > 100 µM (inactive)
GI50 (SK-MEL-5): > 100 µM (inactive)
GI50 (KM12): > 100 µM (inactive)
GI50 (MCF7): > 100 µM (inactive)
GI50 (MDA-MB-435): > 100 µM (inactive)
GI50 (EKVX): > 100 µM (inactive)
GI50 (HOP-92): > 100 µM (inactive)
GI50 (ACHN): > 100 µM (inactive)
GI50 (LOX IMVI): > 100 µM (inactive)
GI50 (UO-31): > 100 µM (inactive)
GI50 (CAKI-1): > 100 µM (inactive)
GI50 (DU-145): > 100 µM (inactive)
GI50 (IGROV-1): > 100 µM (inactive)
GI50 (SF-268): > 100 µM (inactive)
GI50 (SK-MEL-28): > 100 µM (inactive)
GI50 (SK-MEL-2): 43.3 µM (inactive)
GI50 (CCRF-CEM): > 100 µM (inactive)
GI50 (OVCAR-4): > 100 µM (inactive)
GI50 (M14): > 100 µM (inactive)
GI50 (SN12C): > 100 µM (inactive)
GI50 (Malme-3M): > 100 µM (inactive)
GI50 (HOP-62): > 100 µM (inactive)
GI50 (SR): > 100 µM (inactive)
GI50 (COLO 205): > 100 µM (inactive)
GI50 (NCI-H522): > 100 µM (inactive)
GI50 (SF-539): > 100 µM (inactive)
GI50 (T47D): > 100 µM (inactive)
GI50 (UACC-62): > 100 µM (inactive)
GI50 (OVCAR-3): > 100 µM (inactive)
GI50 (786-0): > 100 µM (inactive)
GI50 (NCI-H226): > 100 µM (inactive)
GI50 (OVCAR-5): > 100 µM (inactive)
GI50 (SK-OV-3): > 100 µM (inactive)
GI50 (SW-620): > 100 µM (inactive)
GI50 (MDA-MB-231): 20.7 µM (inactive)
GI50 (NCI-H460): > 100 µM (inactive)
GI50 (HCC 2998): > 100 µM (inactive)
